Test results as given in US6589988B1, “Pharmaceutical composition with antitumor activity on the basis of carboplatin” (Pliva-Lachema, a.s., priority 1998, dated 2003).

What was measured:
Format in all cases: physicochemical
[1] = Decomposition rates of carboplatin calculated from equation /1-7/ (Arrhenius evaluation); conditions: for calculated decomposition rate of carboplatin (r) / rate increase: 25° C.; for calculated decomposition rate of carboplatin (r): from equation /1-7/
Method: After evaluation of Arrhenius equation, the activation energy EA was calculated:
For the reference temperature of 35° C., at which the best determination coefficient has been obtained (R^2=0.99), the following dependence of the decomposition rate of carboplatin on the concentration of the present 1,1-cyclobutanedicarboxylic acid and on the temperature may be obtained from the equations /1-5/ and /1-6/: [formula]
wherein r is expressed in mol·m^−3·s^−1 and CCBDCA is expressed in mol·m^−3.
Based on the equation /1-7/, it is possible to calculate decomposition rates of carboplatin at the temperature of 25° C. and for different concentrations of 1,1-cyclobutanedicarboxylic acid: […]

[2] = Decomposition rate of carboplatin in aqueous solution in dependence on the concentration of 1,1-cyclobutanedicarboxylic acid; conditions: for decomposition rate of carboplatin (r): carboplatin 10.0 mg·ml^−1
Method: The rate of hydrolysis of carboplatin to a monoaquacomplex of the formula (1) has been presumed to be of the first order in relation to carboplatin concentration and independent to water concentration: [formula]
Dependences on concentration according to equations /1-2/ and /1-3/ were evaluated by linear regression and the rate constant and/or the reaction rate of the carboplatin decomposition have been calculated.
Study of the decomposition rate of carboplatin in dependence on the concentration of 1,1-cyclobutanedicarboxylic acid.
Mean starting concentration of carboplatin was 10.0 mg·ml^−1. Starting concentrations of 1,1-cyclobutanedicarboxylic acid were 0.017, 0.129, 1.189 and 14.804 mg·ml^−1. The temperature and relative humidity during storage was 25° C./60% and 35° C./60%. The vials with samples were stored stopper upright.
The decrease of carboplatin content was calculated as a difference of carboplatin content between a reference and measured sample. The concentration data were evaluated according to equation /1-2/, whereby, due to a good linear relation, the data were evaluated by linear regression.

[3] = as above; conditions: 0.1 M phosphate buffer at 37° C. versus 1.4·10^−4M CBDCA-buffer at 40° C.

N.N.O=C([O-])C1(C(=O)[O-])CCC1.[Pt+2] [carboplatin, cis-diammin-1,1-cyclobutanedicarboxylatoplatinum(II) complex]
calculated decomposition rate of carboplatin (r) ([1]; CBDCA 0.005 mg/ml): 4.48·10^−9 mol·m^−3·s^−1
calculated decomposition rate of carboplatin (r) ([1]; CBDCA 0.150 mg/ml (as in Ribocarbol L)): 4.58·10^−9 mol·m^−3·s^−1
rate increase ([1]; CBDCA 0.150 mg/ml versus 0.005 mg/ml): 2.2%
calculated decomposition rate of carboplatin (r) ([1]; CBDCA 0.250 mg/ml (lower limit of EP 642 792)): 4.65·10^−9 mol·m^−3·s^−1
rate increase ([1]; CBDCA 0.250 mg/ml versus 0.005 mg/ml): 4%
activation energy EA of carboplatin decomposition ([1]; Arrhenius equation, from rates at 25 and 35° C.): 190 000 J·mol^−1
increase of the decomposition rate of carboplatin ([2]; enhancement of temperature of 10° C.): approximately tenfold
decomposition rate of carboplatin (r) ([2]; storage 25° C./60% RH, CBDCA 0.017 mg·ml^−1): 4.0 · 10^−9 mol·m^−3·s^−1
decomposition rate of carboplatin (r) ([2]; storage 25° C./60% RH, CBDCA 0.129 mg·ml^−1): 4.0 · 10^−9 mol·m^−3·s^−1
decomposition rate of carboplatin (r) ([2]; storage 25° C./60% RH, CBDCA 1.189 mg·ml^−1): 9.4 · 10^−9 mol·m^−3·s^−1
decomposition rate of carboplatin (r) ([2]; storage 25° C./60% RH, CBDCA 14.804 mg·ml^−1): 2.2 · 10^−8 mol·m^−3·s^−1
decomposition rate of carboplatin (r) ([2]; storage 35° C./60% RH, CBDCA 0.017 mg·ml^−1): 4.9 · 10^−8 mol·m^−3·s^−1
decomposition rate of carboplatin (r) ([2]; storage 35° C./60% RH, CBDCA 0.129 mg·ml^−1): 5.1 · 10^−8 mol·m^−3·s^−1
decomposition rate of carboplatin (r) ([2]; storage 35° C./60% RH, CBDCA 1.189 mg·ml^−1): 7.3 · 10^−8 mol·m^−3·s^−1
decomposition rate of carboplatin (r) ([2]; storage 35° C./60% RH, CBDCA 14.804 mg·ml^−1): 1.7 · 10^−7 mol·m^−3·s^−1
rate constant k, ratio [3]: approximately 200 times
